Reference: the supplement of paper PMC4862054

How the values were obtained:
BT-474 = conditions: 72 h
Procedure, shortened: (§1)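 EC50 was fitted from dose-response curves and censored at the highest concentration tested. To build those curves, breast cancer cell lines (20 µl suspension) were seeded into 384-well plates containing compound at 5 concentrations in 10-fold steps over a compound-specific 10,000-fold range and incubated for 72 h. Readouts were CellTox Green fluorescence (485/520 nm) for cell death and then CellTiter-Glo luminescence for viability, with each plate normalised to 0.1 % DMSO and a positive kill control.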

BT-549 [1] = conditions: 72 h
Procedure, shortened: as §1

CAL-120 [2] = conditions: 72 h
Procedure, shortened: as §1

CAL-148 = conditions: 72 h
Procedure, shortened: as §1

CAL-51 = conditions: 72 h
Procedure, shortened: as §1

CAL-85-1 = conditions: 72 h
Procedure, shortened: as §1

DU-4475 = conditions: 72 h
Procedure, shortened: as §1

HCC1143 [3] = conditions: 72 h
Procedure, shortened: as §1

HCC1599 [4] = conditions: 72 h
Procedure, shortened: as §1

HCC1937 [5] = conditions: 72 h
Procedure, shortened: as §1

HDQ-P1 = conditions: 72 h
Procedure, shortened: as §1

Hs578T [6] = conditions: 72 h
Procedure, shortened: as §1

MCF-10A = conditions: 72 h
Procedure, shortened: as §1

MDA-MB-231 [7] = conditions: 72 h
Procedure, shortened: as §1

MDA-MB-436 [8] = conditions: 72 h
Procedure, shortened: as §1

MDA-MB-468 [9] = conditions: 72 h
Procedure, shortened: as §1

MFM-223 [10] = conditions: 72 h
Procedure, shortened: as §1

SK-BR-3 [11] = conditions: 72 h
Procedure, shortened: as §1

MDA-MB-453 = conditions: 72 h
Procedure, shortened: as §1

BT-549 [12] = conditions: 72 h; remark: listed apart in the source
Procedure, shortened: (§2)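 The reported EC50 was fitted from percent-inhibition dose-response curves and censored at the highest concentration. Breast cancer cell lines (20 µl suspension) were added to 384-well plates containing compound in 5 µl medium and incubated 72 h, and viability was read with 2.5 µl CellTiter-Blue over 2 h at 37 °C at 560/590 nm. Each plate was normalised to vehicle and a positive kill control and checked by Z'-factor, and rows with zero drug sensitivity score were dropped.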

CAL-120 [13] = conditions: 72 h; remark: listed apart in the source
Procedure, shortened: as §2

HCC1143 [14] = conditions: 72 h; remark: listed apart in the source
Procedure, shortened: as §2

HCC1599 [15] = conditions: 72 h; remark: listed apart in the source
Procedure, shortened: as §2

HCC1937 [16] = conditions: 72 h; remark: listed apart in the source
Procedure, shortened: as §2

Hs578T [17] = conditions: 72 h; remark: listed apart in the source
Procedure, shortened: as §2

MDA-MB-231 [18] = conditions: 72 h; remark: listed apart in the source
Procedure, shortened: as §2

MDA-MB-436 [19] = conditions: 72 h; remark: listed apart in the source
Procedure, shortened: as §2

MDA-MB-468 [20] = conditions: 72 h; remark: listed apart in the source
Procedure, shortened: as §2

MFM-223 [21] = conditions: 72 h; remark: listed apart in the source
Procedure, shortened: as §2

SK-BR-3 [22] = conditions: 72 h; remark: listed apart in the source
Procedure, shortened: as §2

HCC1143 [23] = test: normalised viability (% of control), CellTiter-Blue; higher = more viable cells (about 100 = DMSO control); conditions: incubation time: 72 h
Procedure, shortened: (§3)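 Seeded at 20 µl suspension per well onto compound-loaded 384-well plates, breast cancer cell lines were incubated 72 h. CellTiter-Blue fluorescence at 560/590 nm was then read, with each plate normalised to vehicle (100) and a positive kill control (0). Normalised viability is reported at a single listed concentration of the series.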

HCC1599 [24] = test: as above; conditions: incubation time: 72 h
Procedure, shortened: as §3

HCC1937 [25] = test: as above; conditions: incubation time: 72 h
Procedure, shortened: as §3

SK-BR-3 [26] = test: as above; conditions: incubation time: 72 h
Procedure, shortened: as §3

CN(c1ccccc1CNc1nc(Nc2ccc3c(c2)CC(=O)N3)ncc1C(F)(F)F)S(C)(=O)=O
EC50, CellTiter-Glo (BT-474): 2.43 µM
EC50, CellTiter-Glo (BT-549 [1]): 3.13 µM
EC50, CellTiter-Glo (CAL-120 [2]): 8.76 µM
EC50, CellTiter-Glo (CAL-148): 1.88 µM
EC50, CellTiter-Glo (CAL-51): 1.11 µM
EC50, CellTiter-Glo (CAL-85-1): 2.45 µM
EC50, CellTiter-Glo (DU-4475): 2.13 µM
EC50, CellTiter-Glo (HCC1143 [3]): 3.64 µM
EC50, CellTiter-Glo (HCC1599 [4]): 4.38 µM
EC50, CellTiter-Glo (HCC1937 [5]): 6.52 µM
EC50, CellTiter-Glo (HDQ-P1): 1.82 µM
EC50, CellTiter-Glo (Hs578T [6]): 4.36 µM
EC50, CellTiter-Glo (MCF-10A): 1.49 µM
EC50, CellTiter-Glo (MDA-MB-231 [7]): 1.99 µM
EC50, CellTiter-Glo (MDA-MB-436 [8]): 5.62 µM
EC50, CellTiter-Glo (MDA-MB-468 [9]): 1.75 µM
EC50, CellTiter-Glo (MFM-223 [10]): 9.4 µM
EC50, CellTiter-Glo (SK-BR-3 [11]): 3.19 µM

COc1ncc(-c2ccc3nccc(-c4ccnnc4)c3c2)cc1NS(=O)(=O)c1ccc(F)cc1F
EC50, CellTiter-Glo (BT-474): 0.0198 µM
EC50, CellTiter-Glo (BT-549 [1]): 0.0218 µM
EC50, CellTiter-Glo (CAL-120 [2]): 0.0276 µM
EC50, CellTiter-Glo (CAL-148): 0.0768 µM
EC50, CellTiter-Glo (CAL-51): 0.0347 µM
EC50, CellTiter-Glo (CAL-85-1): 0.0158 µM
EC50, CellTiter-Glo (DU-4475): 0.228 µM
EC50, CellTiter-Glo (HCC1143 [3]): 0.0325 µM
EC50, CellTiter-Glo (HCC1599 [4]): 0.0139 µM
EC50, CellTiter-Glo (HCC1937 [5]): 0.13 µM
EC50, CellTiter-Glo (HDQ-P1): 0.0142 µM
EC50, CellTiter-Glo (Hs578T [6]): 0.0376 µM
EC50, CellTiter-Glo (MCF-10A): 0.0129 µM
EC50, CellTiter-Glo (MDA-MB-231 [7]): 0.0566 µM
EC50, CellTiter-Glo (MDA-MB-436 [8]): 0.0238 µM
EC50, CellTiter-Glo (MDA-MB-453): 0.0148 µM
EC50, CellTiter-Glo (MDA-MB-468 [9]): 0.043 µM
EC50, CellTiter-Glo (MFM-223 [10]): 0.0162 µM
EC50, CellTiter-Glo (SK-BR-3 [11]): 0.00682 µM
EC50, CellTiter-Blue viability (BT-549 [12]): 0.0451 µM
EC50, CellTiter-Blue viability (CAL-120 [13]): 0.0201 µM
EC50, CellTiter-Blue viability (HCC1143 [14]): 0.0198 µM
EC50, CellTiter-Blue viability (HCC1599 [15]): 0.00737 µM
EC50, CellTiter-Blue viability (HCC1937 [16]): 0.0279 µM
EC50, CellTiter-Blue viability (Hs578T [17]): 0.0366 µM
EC50, CellTiter-Blue viability (MDA-MB-231 [18]): 0.0335 µM
EC50, CellTiter-Blue viability (MDA-MB-436 [19]): 0.0264 µM
EC50, CellTiter-Blue viability (MDA-MB-468 [20]): 0.0498 µM
EC50, CellTiter-Blue viability (MFM-223 [21]): 0.00862 µM
EC50, CellTiter-Blue viability (SK-BR-3 [22]): 0.00324 µM
normalised viability (HCC1143 [23]; 1 nM): 72.4%
normalised viability (HCC1143 [23]; 100 nM): 35.4%
normalised viability (HCC1143 [23]; 1000 nM): 16.5%
normalised viability (HCC1599 [24]; 1 nM): 88%
normalised viability (HCC1599 [24]; 100 nM): 34.5%
normalised viability (HCC1599 [24]; 1000 nM): 29.3%
normalised viability (HCC1937 [25]; 1 nM): 94%
normalised viability (HCC1937 [25]; 100 nM): 47.2%
normalised viability (HCC1937 [25]; 1000 nM): 32.5%
normalised viability (SK-BR-3 [26]; 1 nM): 77.7%
normalised viability (SK-BR-3 [26]; 100 nM): 14.2%
normalised viability (SK-BR-3 [26]; 1000 nM): 9.4%

C[C@@]1(C(=O)Nc2ccc(F)nc2)CCCN1c1nc(Nc2cc(C3CC3)n[nH]2)c2cccn2n1
EC50, CellTiter-Glo (BT-474): 2.05 µM
EC50, CellTiter-Glo (BT-549 [1]): 1.42 µM
EC50, CellTiter-Glo (CAL-120 [2]): 1.25 µM
EC50, CellTiter-Glo (CAL-51): 1.06 µM
EC50, CellTiter-Glo (CAL-85-1): 0.467 µM
EC50, CellTiter-Glo (DU-4475): 4.11 µM
EC50, CellTiter-Glo (HCC1143 [3]): 4.15 µM
EC50, CellTiter-Glo (HCC1599 [4]): 2.26 µM
EC50, CellTiter-Glo (HDQ-P1): 0.402 µM
EC50, CellTiter-Glo (Hs578T [6]): 7.98 µM
EC50, CellTiter-Glo (MCF-10A): 0.0216 µM
EC50, CellTiter-Glo (MDA-MB-231 [7]): 1.77 µM
EC50, CellTiter-Glo (MDA-MB-436 [8]): 2.72 µM
EC50, CellTiter-Glo (MDA-MB-468 [9]): 0.207 µM
EC50, CellTiter-Glo (MFM-223 [10]): 1.57 µM
EC50, CellTiter-Glo (SK-BR-3 [11]): 0.127 µM
EC50, CellTiter-Blue viability (BT-549 [12]): 1.31 µM
EC50, CellTiter-Blue viability (CAL-120 [13]): 1.93 µM
EC50, CellTiter-Blue viability (HCC1143 [14]): 0.258 µM
EC50, CellTiter-Blue viability (HCC1599 [15]): 0.0708 µM
EC50, CellTiter-Blue viability (HCC1937 [16]): 3.3 µM
EC50, CellTiter-Blue viability (Hs578T [17]): 4.74 µM
EC50, CellTiter-Blue viability (MDA-MB-231 [18]): 0.435 µM
EC50, CellTiter-Blue viability (MDA-MB-436 [19]): 6.37 µM
EC50, CellTiter-Blue viability (MDA-MB-468 [20]): 0.772 µM
EC50, CellTiter-Blue viability (MFM-223 [21]): 1.31 µM
EC50, CellTiter-Blue viability (SK-BR-3 [22]): 0.588 µM
normalised viability (HCC1143 [23]; 10 nM): 105%
normalised viability (HCC1143 [23]; 1000 nM): 64.1%
normalised viability (HCC1143 [23]; 10000 nM): 45.6%
normalised viability (HCC1599 [24]; 10 nM): 92.5%
normalised viability (HCC1599 [24]; 1000 nM): 55%
normalised viability (HCC1599 [24]; 10000 nM): 54.1%
normalised viability (HCC1937 [25]; 10 nM): 127%
normalised viability (HCC1937 [25]; 1000 nM): 73.2%
normalised viability (HCC1937 [25]; 10000 nM): 29.4%
normalised viability (SK-BR-3 [26]; 10 nM): 99.1%
normalised viability (SK-BR-3 [26]; 1000 nM): 71%
normalised viability (SK-BR-3 [26]; 10000 nM): 56.4%
